Assay results taken from ChEMBL document CHEMBL1143160, “Novel 3-alkoxy-1H-pyrazolo[3,4-d]pyrimidines as EGFR and erbB2 receptor tyrosine kinase inhibitors” (Bioorg Med Chem Lett, 2008).

What was measured:
[1] = target: T1, Receptor tyrosine-protein kinase erbB-2 (Homo sapiens, UniProt P04626); assay: Inhibition of erbB2
[2] = target: Epidermal growth factor receptor (Homo sapiens, UniProt P00533)
[3] = target: T1, Receptor tyrosine-protein kinase erbB-2; assay: Inhibition of erB2 autophosphorylation in clone 24 cells; assay type: cell-based
[4] = Antiproliferative activity against human BT474C cells; assay type: functional, cell-based
[5] = Protein binding in Beagle dog plasma assessed as unbound ligand at 0.2 mg/kg, iv and 0.4 mg/kg, po; assay type: ADME, organism-based, Canis lupus familiaris; conditions: read-out: PPB
[6] = tested on: P-gp; assay: Apparent permeability from apical to basolateral side of the dog MDCK cells expressing P-gp transporter; assay type: ADME, cell-based, Canis lupus familiaris; conditions: MDCK-MDR1
[7] = Oral bioavailability in male and female Beagle dog at 0.4 mg/kg; assay type: ADME, organism-based, Canis lupus familiaris; conditions: both, in vivo
[8] = Half life in rat at 0.4 mg/kg, iv and 1 mg/kg, po; assay type: ADME, organism-based; conditions: in vivo
[9] = Clearance in male and female Beagle dog at 0.2 mg/kg, iv and 0.4 mg/kg, po; assay type: ADME, organism-based, Canis lupus familiaris; conditions: both, in vivo
[10] = Clearance in rat at 0.4 mg/kg, iv and 1 mg/kg, po; assay type: ADME, organism-based; conditions: in vivo
[11] = Volume of distribution at steady state in male and female Beagle dog at 0.2 mg/kg, iv and 0.4 mg/kg, po; assay type: ADME, organism-based, Canis lupus familiaris; conditions: both, in vivo, read-out: Vdss
[12] = Volume of distribution at steady state in rat at 0.4 mg/kg, iv and 1 mg/kg, po; assay type: ADME, organism-based; conditions: in vivo, read-out: Vdss
[13] = tested on: KB; assay: Antiproliferative activity against EGF-induced human KB cells; assay type: functional, cell-based
[14] = Oral bioavailability in rat at 1 mg/kg; assay type: ADME, organism-based; conditions: in vivo
[15] = Half life in male and female Beagle dog at 0.2 mg/kg, iv and 0.4 mg/kg, po; assay type: ADME, organism-based, Canis lupus familiaris; conditions: both, in vivo
[16] = Protein binding in rat plasma assessed as unbound ligand at 0.4 mg/kg, iv and 1 mg/kg, po; assay type: ADME, organism-based

Epidermal growth factor receptor, sequence (P00533 whole entry): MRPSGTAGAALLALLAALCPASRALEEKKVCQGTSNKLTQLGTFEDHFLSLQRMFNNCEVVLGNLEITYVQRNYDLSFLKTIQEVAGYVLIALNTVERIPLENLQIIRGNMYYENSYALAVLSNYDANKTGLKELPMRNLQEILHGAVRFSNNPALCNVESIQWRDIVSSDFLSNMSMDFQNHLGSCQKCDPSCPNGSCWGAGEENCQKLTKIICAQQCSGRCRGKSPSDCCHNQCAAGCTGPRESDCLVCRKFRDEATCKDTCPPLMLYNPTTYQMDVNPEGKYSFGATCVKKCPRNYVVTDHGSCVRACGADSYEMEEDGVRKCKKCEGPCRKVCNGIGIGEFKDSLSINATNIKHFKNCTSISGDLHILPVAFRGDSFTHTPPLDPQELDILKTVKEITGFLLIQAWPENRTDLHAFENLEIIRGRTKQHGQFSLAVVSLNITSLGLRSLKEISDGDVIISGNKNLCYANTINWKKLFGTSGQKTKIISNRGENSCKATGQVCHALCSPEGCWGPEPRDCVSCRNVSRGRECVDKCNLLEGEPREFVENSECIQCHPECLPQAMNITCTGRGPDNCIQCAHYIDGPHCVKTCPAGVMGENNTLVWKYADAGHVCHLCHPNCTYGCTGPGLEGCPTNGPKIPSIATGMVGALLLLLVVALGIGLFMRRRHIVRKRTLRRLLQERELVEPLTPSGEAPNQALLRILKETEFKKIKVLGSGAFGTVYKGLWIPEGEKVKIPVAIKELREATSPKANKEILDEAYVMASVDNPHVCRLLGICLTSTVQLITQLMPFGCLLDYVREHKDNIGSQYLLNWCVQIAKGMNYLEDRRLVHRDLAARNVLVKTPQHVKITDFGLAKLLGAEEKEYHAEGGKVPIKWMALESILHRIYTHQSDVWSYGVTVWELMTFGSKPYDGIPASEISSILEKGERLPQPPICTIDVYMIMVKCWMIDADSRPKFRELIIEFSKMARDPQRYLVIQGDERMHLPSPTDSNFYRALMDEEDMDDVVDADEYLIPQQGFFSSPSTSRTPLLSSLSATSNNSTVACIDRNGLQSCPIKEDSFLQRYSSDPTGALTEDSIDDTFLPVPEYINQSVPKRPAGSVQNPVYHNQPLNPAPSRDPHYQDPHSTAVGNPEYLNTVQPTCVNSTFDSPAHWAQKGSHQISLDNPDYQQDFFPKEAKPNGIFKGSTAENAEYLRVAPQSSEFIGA
T1 sequence (P04626 whole entry): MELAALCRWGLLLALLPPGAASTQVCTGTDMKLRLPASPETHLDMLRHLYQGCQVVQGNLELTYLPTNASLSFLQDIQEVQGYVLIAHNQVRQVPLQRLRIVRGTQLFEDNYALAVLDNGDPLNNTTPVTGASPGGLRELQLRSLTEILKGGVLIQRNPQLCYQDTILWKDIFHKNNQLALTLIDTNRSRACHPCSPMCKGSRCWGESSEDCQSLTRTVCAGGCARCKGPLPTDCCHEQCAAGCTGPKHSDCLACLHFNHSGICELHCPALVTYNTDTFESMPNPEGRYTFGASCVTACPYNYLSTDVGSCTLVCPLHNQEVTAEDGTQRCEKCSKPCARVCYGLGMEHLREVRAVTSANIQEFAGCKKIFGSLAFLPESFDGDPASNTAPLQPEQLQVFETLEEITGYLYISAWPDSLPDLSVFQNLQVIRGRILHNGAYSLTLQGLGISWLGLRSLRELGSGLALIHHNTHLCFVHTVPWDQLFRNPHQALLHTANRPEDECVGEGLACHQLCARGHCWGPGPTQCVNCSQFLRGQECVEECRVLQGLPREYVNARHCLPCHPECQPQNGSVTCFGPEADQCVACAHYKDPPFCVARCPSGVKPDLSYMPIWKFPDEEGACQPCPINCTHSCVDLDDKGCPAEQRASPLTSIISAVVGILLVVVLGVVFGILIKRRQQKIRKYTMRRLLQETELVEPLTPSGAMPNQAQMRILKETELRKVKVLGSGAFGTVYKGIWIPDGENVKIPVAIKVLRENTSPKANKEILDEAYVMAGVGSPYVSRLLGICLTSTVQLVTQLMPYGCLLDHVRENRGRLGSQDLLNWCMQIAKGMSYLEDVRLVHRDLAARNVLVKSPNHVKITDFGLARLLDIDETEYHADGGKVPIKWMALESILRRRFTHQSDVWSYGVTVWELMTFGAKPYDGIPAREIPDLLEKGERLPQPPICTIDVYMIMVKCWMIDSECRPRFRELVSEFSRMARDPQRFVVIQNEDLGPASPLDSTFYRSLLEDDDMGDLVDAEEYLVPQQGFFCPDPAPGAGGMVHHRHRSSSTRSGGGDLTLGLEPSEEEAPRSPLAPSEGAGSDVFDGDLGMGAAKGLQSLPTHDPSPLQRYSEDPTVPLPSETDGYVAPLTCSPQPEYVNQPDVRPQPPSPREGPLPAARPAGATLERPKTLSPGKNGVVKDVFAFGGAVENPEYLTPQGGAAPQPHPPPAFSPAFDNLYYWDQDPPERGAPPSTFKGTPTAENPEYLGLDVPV

Row | IC50 [1] [µM] | IC50 [2] [µM] | IC50 [3] [µM] | Structure (SMILES) | also measured
1 | 0.005 | 1.43 | – | Cc1ccc(Oc2ccc(Nc3ncnc4[nH]nc(OCCN5CCC(O)CC5)c34)cc2F)cn1 | –
2 | < 0.001 | 0.007 | 0.184 | Cc1ccc(Oc2ccc(Nc3ncnc4[nH]nc(OCCN5CCC(O)CC5)c34)cc2Cl)cn1 | –
3 | 0.003 | 0.013 | 0.613 | COc1cc(Nc2ncnc3[nH]nc(OCCN4CCC(O)CC4)c23)ccc1OCc1cccc(F)c1 | –
4 | – | – | – | CN1CCC(Oc2cccc3ncnc(Nc4ccc(OCc5ccccn5)c(Cl)c4)c23)CC1 | IC50 [4]: 0.041 µM
5 | 0.004 | 0.028 | 0.082 | COC1CCN(CCOc2n[nH]c3ncnc(Nc4ccc(OCc5ccccn5)c(Cl)c4)c23)CC1 | –
6 | 0.001 | 0.005 | 0.166 | CN1CCN(CCOc2n[nH]c3ncnc(Nc4ccc(OCc5ccccn5)c(Cl)c4)c23)CC1 | fraction unbound [5]: 0.21; Papp A→B [6]: 9.5 ×10⁻⁶ cm/s; bioavailability [7]: 30%; half-life [8]: 1.4 h; clearance [9]: 46 mL/min/kg; clearance [10]: 41 mL/min/kg; Vd [11]: 9 L/kg; Vd [12]: 4.5 L/kg; IC50 [13]: 0.22 µM; bioavailability [14]: 23%; half-life [15]: 2.4 h; IC50 [4]: 0.017 µM; fraction unbound [16]: 0.1
7 | 0.017 | – | 1.48 | COc1cc(Nc2ncnc3[nH]nc(OCCN4CCC(O)CC4)c23)ccc1OCc1ccccn1 | –
8 | 0.003 | 0.008 | 0.128 | Clc1cc(Nc2ncnc3[nH]nc(OCCN4CCNCC4)c23)ccc1OCc1ccccn1 | –
9 | 0.003 | 0.017 | 1 | CNCCOc1n[nH]c2ncnc(Nc3ccc(OCc4ccccn4)c(Cl)c3)c12 | –
10 | < 0.001 | < 0.001 | 0.107 | Cc1cc(Nc2ncnc3[nH]nc(OCCN4CCC(O)CC4)c23)ccc1OCc1cccc(F)c1 | –
11 | 0.005 | 0.018 | 0.695 | Cc1cc(Nc2ncnc3[nH]nc(OCCN4CCC(O)CC4)c23)ccc1OCc1ccccn1 | –
12 | 0.005 | 0.013 | 0.135 | OC1CCN(CCOc2n[nH]c3ncnc(Nc4ccc(OCc5ccccn5)c(Cl)c4)c23)CC1 | –
13 | 0.006 | – | – | OC1CCN(CCCOc2n[nH]c3ncnc(Nc4ccc(OCc5ccccn5)c(Cl)c4)c23)CC1 | –
14 | 0.004 | 0.014 | – | CN1CCN(CCCOc2n[nH]c3ncnc(Nc4ccc(OCc5ccccn5)c(Cl)c4)c23)CC1 | –
15 | 0.011 | – | 0.415 | Cc1ccc(Oc2ccc(Nc3ncnc4[nH]nc(OCCN5CCC(O)CC5)c34)cc2C)cn1 | –

Row | Structure (SMILES) | IC50 [1] [µM] | IC50 [2] [µM] | IC50 [3] [µM] | also measured
16 | Clc1cc(Nc2ncnc3n[nH]c(OCCN4CCCCCO4)c23)ccc1OCc1ccccn1 | < 0.001 | < 0.001 | 0.148 | –
17 | OC1CCN(CCOc2n[nH]c3ncnc(Nc4ccc(OCc5cccc(F)c5)c(Cl)c4)c23)CC1 | < 0.001 | < 0.001 | 0.019 | –
18 | OCCOc1n[nH]c2ncnc(Nc3ccc(OCc4ccccn4)c(Cl)c3)c12 | 0.004 | 0.016 | – | –
19 | Clc1cc(Nc2ncnc3[nH]nc(OCCCN4CCOCC4)c23)ccc1OCc1ccccn1 | < 0.001 | 0.016 | 0.44 | –
20 | CC(=O)N1CCN(CCOc2n[nH]c3ncnc(Nc4ccc(OCc5ccccn5)c(Cl)c4)c23)CC1 | < 0.001 | 0.003 | 0.129 | –
21 | Clc1cc(Nc2ncnc3[nH]nc(OCCN4CCOCC4)c23)ccc1OCc1ccccn1 | < 0.001 | 0.001 | – | –
